Consider four compounds from ChEMBL document CHEMBL1123381, “Synthesis and antiviral evaluation of 1,4-dioxane nucleoside analogues related to nucleoside dialdehydes” (1986).

Each structure is given as a SMILES string. Calls of active or inactive are those of the source. No cut-off for these calls is given here.

Test [1] concerns Vaccinia virus. As to the kind of experiment: The compound was tested for inhibitory activity against vaccinia virus replication. It is filed as functional. The conditions noted are these: Orthopoxvirus vaccinia; read-out: ID50 (the source's name).
The nature of test [2]: The compound was evaluated for cellular toxicity against [3H]thymidine incorporation into DNA of uninfected mouse L-cells. It is filed as functional. (In general: Uptake of a labelled nucleoside into DNA is a usual measure of proliferation.)
Test [3] deals with Vaccinia virus. The test is described as follows: The compound was tested for inhibitory activity against vaccinia virus replication; NA=Not active. It is filed as functional, organism-based. The conditions noted are these: Orthopoxvirus vaccinia.

Consider `Nc1ncnc2c1ncn2[C@@H](C=O)O[C@@H](C=O)CO`, for which the IC50 in the test on Vaccinia virus [1] was determined as 0.3 µM. In test [2], the “[3H]thymidine incorporation, % of control” value is reported as 8.3%.

For `Nc1ncnc2c1ncn2C1COCC(CO)O1` (stereo not drawn), in the test with Vaccinia virus [3], the ID50 entry was “inactive”. The “[3H]thymidine incorporation, % of control” value in test [2] is reported as 95%.

Turning to `Nc1nc(O)c2ncn(C3COCC(CO)O3)c2n1` (stereo not drawn), the ID50 entry in the test on Vaccinia virus [3] was “inactive”. For the same compound, the “[3H]thymidine incorporation, % of control” value in test [2] was determined as 99%.

`C=C(CO)OC(=C)n1cnc2c(N)ncnc21`: in the test with Vaccinia virus [1], the IC50 was 30 µM. The “[3H]thymidine incorporation, % of control” value in test [2] is 104%.
